Measured values: patent publication US11793823B2, “Compounds and pharmaceutical uses thereof” (SyneuRx International (Taiwan) Corp., priority 2020, dated 2023)
Where a name gives a salt, the structure may show the parent alone.

Molecular target: human D-amino acid oxidase (hDAAO) (Homo sapiens (Human), UniProt P14920)
Assay: In vitro human D-amino acid oxidase (hDAAO) activity, D-Serine/Amplex Red fluorescence
Format: biochemical
Details: D-Serine substrate, 20 min
Protocol: The hDAAO inhibitory activities were measured by using D-Serine as a substrate to produce H2O2. The produced H2O2 would be oxidized by peroxidase, and the produced free radicals would further react with Amplex Red reagent to emit fluorescence. The intensity of fluorescence at 590 nm would be measured to represent the activity of hDAAO. All compounds were dissolved in DMSO. Each compound was diluted with DMSO in 3-fold serial dilution to create a dose response curve. Each sample was added in triplicate, 1 µL/well, into 96-well black plates. Positive control wells were added with 1 μL of DMSO. Then 49 μL of assay buffer (100 mM Tris-HCl, pH 8.5) containing 1.2 ng/mL hDAAO, 900 nM FAD, 0.2 units/mL HRP, and 100 μM Amplex Red was added to each well of the plate using a multichannel pipette. Next, 50 μL of 100 mM D-Serine in assay buffer was added. The reaction plates were then incubated in the dark at room temperature. The fluorescence readout was detected at 0 and 20 mins by Molecular Device Gemini EM fluorescence reader using the following settings: excitation filter 530 nm, and emission filter 590 nm. The percentage of inhibition values for each well was calculated with the following equation: The percentage of inhibition=(fluorescence sample, 20 min−fluorescence sample, 0 min)/(fluorescence DMSO, 20 min−fluorescence DMSO, 0 min)×100%
The nonlinear curve fitting model in GraphPad Prism was used to calculate IC50 value for each compound.

human D-amino acid oxidase (hDAAO), sequence (P14920 whole entry): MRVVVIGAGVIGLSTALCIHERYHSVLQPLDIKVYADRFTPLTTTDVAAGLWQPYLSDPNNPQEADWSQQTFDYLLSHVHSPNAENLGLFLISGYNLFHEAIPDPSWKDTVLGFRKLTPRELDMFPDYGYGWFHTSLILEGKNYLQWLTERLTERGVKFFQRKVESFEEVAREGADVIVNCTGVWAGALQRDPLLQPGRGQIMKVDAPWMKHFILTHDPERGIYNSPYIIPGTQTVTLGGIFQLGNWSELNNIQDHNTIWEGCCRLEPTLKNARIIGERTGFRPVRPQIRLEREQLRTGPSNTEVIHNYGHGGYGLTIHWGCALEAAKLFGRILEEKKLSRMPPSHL

Compound	IC50 [nM]
O=C(Oc1cc(C(=O)Oc2cc(C(=O)Oc3cc(C(=O)Oc4cc(C(=O)OC5CCCCC5)cc(O)c4O)cc(O)c3O)cc(O)c2O)cc(O)c1O)c1cc(O)c(O)c(O)c1 [Compound 96, Cyclohexyl 3-((3-((3-((3,4-dihydroxy-5-((3,4,5-trihydroxybenzoyl)oxy)benzoyl)oxy)-4,5-dihydroxybenzoyl)oxy)-4,5-dihydroxybenzoyl)oxy)-4,5-dihydroxybenzoate]	26
O=C(OC[C@H]1O[C@H](OC(=O)c2cc(O)c(O)c(OC(=O)c3cc(O)c(O)c(OC(=O)c4cc(O)c(O)c(O)c4)c3)c2)[C@H](OC(=O)c2cc(O)c(O)c(OC(=O)c3cc(O)c(O)c(OC(=O)c4cc(O)c(O)c(O)c4)c3)c2)[C@@H]1OC(=O)c1cc(O)c(O)c(OC(=O)c2cc(O)c(O)c(OC(=O)c3cc(O)c(O)c(O)c3)c2)c1)c1cc(O)c(O)c(OC(=O)c2cc(O)c(O)c(OC(=O)c3cc(O)c(O)c(O)c3)c2)c1 [Compound 136, (2R,3R,4R,5R)-5-(((3-((3,4-dihydroxy-5-((3,4,5-trihydroxybenzoyl)oxy)benzoyl)oxy)-4,5-dihydroxybenzoyl)oxy)methyl)tetrahydrofuran-2,3,4-triyl tris(3-((3,4-dihydroxy-5-((3,4,5-trihydroxybenzoyl)oxy)benzoyl)oxy)-4,5-dihydroxybenzoate)]	6
O=C(OC[C@H]1O[C@@H](OC(=O)c2cc(O)c(O)c(OC(=O)c3cc(O)c(O)c(O)c3)c2)[C@H](OC(=O)c2cc(O)c(O)c(OC(=O)c3cc(O)c(O)c(O)c3)c2)[C@@H]1OC(=O)c1cc(O)c(O)c(OC(=O)c2cc(O)c(O)c(O)c2)c1)c1cc(O)c(O)c(OC(=O)c2cc(O)c(O)c(O)c2)c1 [Compound 142, (2S,3R,4R,5R)-5-(((3,4-dihydroxy-5-((3,4,5-trihydroxybenzoyl)oxy)benzoyl)oxy)methyl)tetrahydrofuran-2,3,4-triyl tris(3,4-dihydroxy-5-((3,4,5-trihydroxybenzoyl)oxy)benzoate)]	19
O=C(O)c1cc(O)c(O)c(OC(=O)c2cc(O)c(O)c(OC(=O)c3cc(O)c(O)c(OC(=O)c4cc(O)c(O)c(O)c4)c3)c2)c1 [Compound 149, 3-((3-((3,4-dihydroxy-5-((3,4,5-trihydroxybenzoyl)oxy)benzoyl)oxy)-4,5-dihydroxybenzoyl)oxy)-4,5-dihydroxybenzoic acid]	48
3-((3-((3-((3-((3-((3-((3-((1H-pyrrole-2-carbonyl)oxy)-4,5-dihydroxybenzoyl)oxy)-4,5-dihydroxybenzoyl)oxy)-4,5-dihydroxybenzoyl)oxy)-4,5-dihydroxybenzoic acid [Compound 28]	82
O=C(O)c1cc(O)c(O)c(OC(=O)c2cc(O)c(O)c(OC(=O)c3cc(O)c(O)c(OC(=O)c4cc(O)c(O)c(OC(=O)c5cc(O)c(O)c(OC(=O)c6cc(CCc7cccc8c7CCCC8)n[nH]6)c5)c4)c3)c2)c1 [Compound 42, 3-((3-((3-((3-((3,4-dihydroxy-5-((3-(2-(5,6,7,8-tetrahydronaphthalen-1-yl)ethyl)-1H-pyrazole-5-carbonyl)oxy)benzoyl)oxy)-4,5-dihydroxybenzoyl)oxy)-4,5-dihydroxybenzoyl)oxy)-4,5-dihydroxybenzoyl)oxy)-4,5-dihydroxybenzoic acid]	31
O=C(Oc1cc(C(=O)Oc2cc(C(=O)Oc3cc(C(=O)Oc4cc(C(=O)OC5CC5)cc(O)c4O)cc(O)c3O)cc(O)c2O)cc(O)c1O)c1cc(O)c(O)c(O)c1 [Compound 98, 5-((5-((5-((5-(cyclopropoxycarbonyl)-2,3-dihydroxyphenoxy)carbonyl)-2,3-dihydroxyphenoxy)carbonyl)-2,3-dihydroxyphenoxy)carbonyl)-2,3-dihydroxyphenyl 3,4,5-trihydroxybenzoate]	33
O=C(O)c1cc(O)c(O)c(OC(=O)c2cc(O)c(O)c(OC(=O)c3cc(O)c(O)c(OC(=O)c4cc(O)c(O)c(OC(=O)c5cc(O)c(O)c(OC(=O)c6cc(O)c(O)c(OC(=O)c7cc(O)c(O)c(O)c7)c6)c5)c4)c3)c2)c1 [Compound 22, 3-((3-((3-((3-((3-((3,4-dihydroxy-5-((3,4,5-trihydroxybenzoyl)oxy)benzoyl)oxy)-4,5-dihydroxybenzoyl)oxy)-4,5-dihydroxybenzoyl)oxy)-4,5-dihydroxybenzoyl)oxy)-4,5-dihydroxybenzoyl)oxy)-4,5-dihydroxybenzoic acid]	63
O=C(Oc1cc(OC(=O)c2cc(O)c(O)c(OC(=O)c3cc(O)c(O)c(OC(=O)c4cc(O)c(O)c(OC(=O)c5cc(O)c(O)c(OC(=O)c6cc(O)c(O)c(O)c6)c5)c4)c3)c2)cc(OC(=O)c2cc(O)c(O)c(OC(=O)c3cc(O)c(O)c(OC(=O)c4cc(O)c(O)c(OC(=O)c5cc(O)c(O)c(OC(=O)c6cc(O)c(O)c(O)c6)c5)c4)c3)c2)c1)c1ccccc1 [Compound 103, 5-(benzoyloxy)-1,3-phenylene bis(3-((3-((3-((3,4-dihydroxy-5-((3,4,5-trihydroxybenzoyl)oxy)benzoyl)oxy)-4,5-dihydroxybenzoyl)oxy)-4,5-dihydroxybenzoyl)oxy)-4,5-dihydroxybenzoate)]	7
O=C(OC[C@H]1O[C@@H](OC(=O)c2cc(O)c(O)c(OC(=O)c3cc(O)c(O)c(OC(=O)c4cc(O)c(O)c(O)c4)c3)c2)[C@H](OC(=O)c2cc(O)c(O)c(OC(=O)c3cc(O)c(O)c(OC(=O)c4cc(O)c(O)c(O)c4)c3)c2)[C@@H]1OC(=O)c1cc(O)c(O)c(OC(=O)c2cc(O)c(O)c(OC(=O)c3cc(O)c(O)c(O)c3)c2)c1)c1cc(O)c(O)c(OC(=O)c2cc(O)c(O)c(OC(=O)c3cc(O)c(O)c(O)c3)c2)c1 [Compound 144, (2S,3R,4R,5R)-5-(((3-((3,4-dihydroxy-5-((3,4,5-trihydroxybenzoyl)oxy)benzoyl)oxy)-4,5-dihydroxybenzoyl)oxy)methyl)tetrahydrofuran-2,3,4-triyl tris(3-((3,4-dihydroxy-5-((3,4,5-trihydroxybenzoyl)oxy)benzoyl)oxy)-4,5-dihydroxybenzoate)]	8
O=C(O)c1cc(O)c(O)c(OC(=O)c2cc(O)c(O)c(OC(=O)c3cc(O)c(O)c(OC(=O)c4cc(O)c(O)c(OC(=O)c5cc(O)c(O)c(OC(=O)c6cc(CCc7cc(F)cc(F)c7)n[nH]6)c5)c4)c3)c2)c1 [Compound 58, 3-((3-((3-((3-((3-((3-(3,5-difluorophenethyl)-1H-pyrazole-5-carbonyl)oxy)-4,5-dihydroxybenzoyl)oxy)-4,5-dihydroxybenzoyl)oxy)-4,5-dihydroxybenzoyl)oxy)-4,5-dihydroxybenzoyl)oxy)-4,5-dihydroxybenzoic acid]	33
O=C(Oc1cc(C(=O)Oc2cc(C(=O)O[C@@H]3OC[C@@H](OC(=O)c4cc(O)c(O)c(OC(=O)c5cc(O)c(O)c(OC(=O)c6cc(O)c(O)c(O)c6)c5)c4)[C@H](OC(=O)c4cc(O)c(O)c(OC(=O)c5cc(O)c(O)c(OC(=O)c6cc(O)c(O)c(O)c6)c5)c4)[C@H]3OC(=O)c3cc(O)c(O)c(OC(=O)c4cc(O)c(O)c(OC(=O)c5cc(O)c(O)c(O)c5)c4)c3)cc(O)c2O)cc(O)c1O)c1cc(O)c(O)c(O)c1 [Compound 126, (2S,3R,4S,5R)-tetrahydro-2H-pyran-2,3,4,5-tetrayl tetrakis(3-((3,4-dihydroxy-5-((3,4,5-trihydroxybenzoyl)oxy)benzoyl)oxy)-4,5-dihydroxybenzoate)]	3.6
O=C(OC[C@H]1O[C@@H](OC(=O)c2cc(O)c(O)c(OC(=O)c3cc(O)c(O)c(OC(=O)c4cc(O)c(O)c(OC(=O)c5cc(O)c(O)c(O)c5)c4)c3)c2)[C@H](OC(=O)c2cc(O)c(O)c(OC(=O)c3cc(O)c(O)c(OC(=O)c4cc(O)c(O)c(OC(=O)c5cc(O)c(O)c(O)c5)c4)c3)c2)[C@@H]1OC(=O)c1cc(O)c(O)c(OC(=O)c2cc(O)c(O)c(OC(=O)c3cc(O)c(O)c(OC(=O)c4cc(O)c(O)c(O)c4)c3)c2)c1)c1cc(O)c(O)c(OC(=O)c2cc(O)c(O)c(OC(=O)c3cc(O)c(O)c(OC(=O)c4cc(O)c(O)c(O)c4)c3)c2)c1 [Compound 146, (2S,3R,4R,5R)-5-(((3-((3-((3,4-dihydroxy-5-((3,4,5-trihydroxybenzoyl)oxy)benzoyl)oxy)-4,5-dihydroxybenzoyl)oxy)-4,5-dihydroxybenzoyl)oxy)methyl)tetrahydrofuran-2,3,4-triyl tris(3-((3-((3,4-dihydroxy-5-((3,4,5-trihydroxybenzoyl)oxy)benzoyl)oxy)-4,5-dihydroxybenzoyl)oxy)-4,5-dihydroxybenzoate)]	4
O=C(Oc1cccnc1)c1cc(O)c(O)c(OC(=O)c2cc(O)c(O)c(OC(=O)c3cc(O)c(O)c(OC(=O)c4cc(O)c(O)c(OC(=O)c5cc(O)c(O)c(O)c5)c4)c3)c2)c1 [Compound 94, 5-((5-((5-((2,3-dihydroxy-5-((pyridin-3-yloxy)carbonyl)phenoxy)carbonyl)-2,3-dihydroxyphenoxy)carbonyl)-2,3-dihydroxyphenoxy)carbonyl)-2,3-dihydroxyphenyl 3,4,5-trihydroxybenzoate hydrochloride salt]	42
